18 compounds from publication PMC6539231, “4,5-Diaryl 3(2H)Furanones: Anti-Inflammatory Activity and Influence on Cancer Growth” (Molecules, 2019) can be followed below.

A word on the melting point: it is the temperature of the solid-liquid transition. Broadly, the IC50 is the concentration that gives 50% inhibition.

Like-named read-outs stand apart in the source and are kept apart here.

Data set [1] deals with carrageenan mice paw oedema. The experiment in a line: Carrageenin-induced mouse paw edema. Type of data set: in vivo, mice (AKR). Particulars: for inhibition in vivo at 0.1 µmol/g: Mus musculus, ip, read-out: CPE, %; for anti-inflammatory activity, reference compounds: dose not given. The method, then:
From the data of Table 7 it is obvious that anti-inflammatory activity of alkylsulfones and sulfoxides of furan-3(2H)-ones, including annelated derivatives are very similar.
The anti-inflammatory activity of compounds was performed using the carrageenan mice paw oedema assay. Animal of both sex (AKR), with exception of pregnant females were housed under standard conditions, receiving only water during the experimental period. […] The detailed description of the whole experiment reported previously. All the biological experiments were carried out in full compliance with the European Convention for the Protection of Vertebrate Animals used for Experimental or Other Scientific Purposes (ETS NO 123, Strasbourg, 03/18/1986): Strasbourg (France). European Treaty Series, № 123, March 18, 1986. 11 P. The project identification code and date of approval is 350880/3468 of 15-12-2014, University of Thessaloniki.
On the technique in general: In the carrageenan paw model, swelling and tenderness develop within hours.

In another data set the target is T1, human recombinant COX-2 (Homo sapiens, UniProt P35354).
T1 construct: purchased Cayman Chemical Co., Ann Arbor, MI, USA
T1 sequence (P35354 18-604): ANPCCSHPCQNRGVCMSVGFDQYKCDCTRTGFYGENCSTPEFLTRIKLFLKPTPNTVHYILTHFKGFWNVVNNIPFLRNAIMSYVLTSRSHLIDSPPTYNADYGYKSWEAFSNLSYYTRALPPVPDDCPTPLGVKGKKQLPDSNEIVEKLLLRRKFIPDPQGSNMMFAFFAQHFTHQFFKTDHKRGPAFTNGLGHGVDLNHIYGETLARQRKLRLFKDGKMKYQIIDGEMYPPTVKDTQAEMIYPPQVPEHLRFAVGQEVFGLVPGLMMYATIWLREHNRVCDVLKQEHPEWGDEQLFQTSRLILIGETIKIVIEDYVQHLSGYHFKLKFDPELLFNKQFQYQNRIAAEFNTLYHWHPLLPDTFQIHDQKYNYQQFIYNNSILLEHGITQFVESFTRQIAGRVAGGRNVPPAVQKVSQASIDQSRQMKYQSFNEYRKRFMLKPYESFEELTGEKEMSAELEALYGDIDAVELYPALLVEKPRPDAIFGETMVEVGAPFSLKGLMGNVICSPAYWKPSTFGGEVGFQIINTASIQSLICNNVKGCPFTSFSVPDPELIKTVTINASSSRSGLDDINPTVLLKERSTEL
In words: In vitro COX-2 inhibition (Cayman COX Inhibitor Screening Assay kit). Type of data set: biochemical. As to conditions: for % Inhibition (COX-2): Compound concentration 50 μΜ, arachidonic acid 0.1 μM; for IC50: read-out: Experimental IC50 COX-2. The procedure: (§1) The COX-1 and COX-2 activities of the compounds were measured using ovine COX-1 and human recombinant COX-2 enzymes included in the “COX Inhibitor Screening Assay” kit provided by Cayman (Cayman Chemical Co., Ann Arbor, MI, USA) as reported previously

The target in another data set is T2, ovine COX-1 (Ovis aries, UniProt P05979).
T2 construct: purchased Cayman Chemical Co., Ann Arbor, MI, USA
T2 sequence (P05979 25-600): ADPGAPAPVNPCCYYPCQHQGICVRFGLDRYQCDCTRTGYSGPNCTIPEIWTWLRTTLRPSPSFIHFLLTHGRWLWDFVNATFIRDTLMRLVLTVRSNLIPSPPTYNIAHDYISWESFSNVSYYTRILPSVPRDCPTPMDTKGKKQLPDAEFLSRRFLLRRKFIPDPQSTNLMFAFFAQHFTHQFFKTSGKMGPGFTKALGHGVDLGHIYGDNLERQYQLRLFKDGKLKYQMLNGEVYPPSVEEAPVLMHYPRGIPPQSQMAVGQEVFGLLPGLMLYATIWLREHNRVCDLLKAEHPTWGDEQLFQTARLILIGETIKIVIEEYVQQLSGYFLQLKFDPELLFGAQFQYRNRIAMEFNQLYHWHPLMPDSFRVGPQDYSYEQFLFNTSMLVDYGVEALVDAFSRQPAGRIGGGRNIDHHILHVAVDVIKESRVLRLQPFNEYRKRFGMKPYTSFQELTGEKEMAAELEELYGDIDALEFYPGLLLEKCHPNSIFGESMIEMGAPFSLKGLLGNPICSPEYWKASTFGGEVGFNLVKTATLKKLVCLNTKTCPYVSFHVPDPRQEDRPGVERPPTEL
The experiment in a line: In vitro COX-1 inhibition (Cayman COX Inhibitor Screening Assay kit). Type of data set: biochemical. As to conditions: for % Inhibition (COX-1): Compound concentration 50 μΜ, arachidonic acid 0.1 μM; for IC50: read-out: Experimental IC50 COX-1. The method, then:
as §1

Data set [2] deals with MCF-7 cells. The experiment in a line: Growth inhibition assay, MCF-7 cells. Type of data set: cell-based, human. Particulars: 48 h exposure.
Experimental: The cells were grown in the presence of each of the selected compounds as well as of the two well-known anti-neoplastic drugs gefitinib and 5-fluorouracil.
Each cell culture was treated appropriately, ensuring that DMSO concentration was kept below ≤ 0.2% (v/v) after every dilution. Cells were seeded in 24-well plates, at an initial density of 5 × 10^4 cells/mL. […] Cells were allowed to grow for additional 48 h before being harvested by trypsinization and subsequently counted (cell density; number of cells/mL) using a hemocytometer (Neubauer counting chamber) and optical microscopy. Cell growth was expressed as a percentage relative to that for the untreated control culture (only cells and medium, CTL).
The subject of data set [3] is MCF-7 cells. In words: Combination (synergy) growth assay in MCF-7 cells, Combination Index. Type of data set: cell-based, human. Particulars: MCF-7, 48 h; for CI, combination with 5-fluorouracil / CI, combination with gefitinib: CI <1 synergy, >1 antagonism. The method, then:
In addition, exposure of the MCF-7 cells to each of the compounds in combination with each one of the two anti-neoplastic drugs was performed in order to study the synergistic effect of the compounds. The results are shown in Table 9 and Figure 5 and Figure 6.

[4] abbreviates: Dose 0.1 µmol/g, intraperitoneally, simultaneously with carrageenin.

Consider `C[S+]([O-])c1ccc(C2=C(c3ccccc3)OC(C)(C)C2=O)cc1` (stereo not drawn) [1b, 2,2-Dimethyl-4-[4′-(methylsulfinyl)phenyl]-5-phenylfuran-3(2H)-one], for which, in data set [1] (setting [4]), the inhibition in vivo at 0.1 µmol/g is 47%.
Turning to `CC1(C)OC(c2ccccc2)=C(c2ccc(S(C)(=O)=O)cc2)C1=O` [1c, 2,2-Dimethyl-4-[4′-(methylsulfonyl)phenyl]-5-phenylfuran-3(2H)-one], at human recombinant COX-2, the “% Inhibition (COX-2)” value was 0%. In addition, at ovine COX-1, the “% Inhibition (COX-1)” value is 0%. The inhibition in vivo at 0.1 µmol/g in data set [1] (setting [4]) is 50.2%.
`C[S+]([O-])c1ccc(C2=C(c3ccc(Cl)cc3)OC(C)(C)C2=O)cc1` (stereo not drawn) [1j]: the “% Inhibition (COX-2)” value on human recombinant COX-2 is listed as 0%. Also, on ovine COX-1, the “% Inhibition (COX-1)” value is listed as 0%. For the same compound, in data set [1] (setting [4]), the inhibition in vivo at 0.1 µmol/g amounted to 54%.
Take `CC1(C)OC(c2ccc(Cl)cc2)=C(c2ccc(S(C)(=O)=O)cc2)C1=O` [1k, 5-(4′-Chlorophenyl)-2,2-dimethyl-4-[4′-(methylsulfonyl)phenyl]-furan-3(2H)-one]: the melting point lay within 223 to 225 °C. Further, at human recombinant COX-2, the “% Inhibition (COX-2)” value came to 6% and the IC50 was above 50 µM. Moreover, at ovine COX-1, the “% Inhibition (COX-1)” value is given as 80% and the IC50 is 29 µM. Also, in data set [1] (setting [4]), the inhibition in vivo at 0.1 µmol/g stood at 50.6%.
Regarding `C[S+]([O-])c1ccc(C2=C(c3cccc(Cl)c3)OC(C)(C)C2=O)cc1` (stereo not drawn) [1n, 5-(3′-Chlorophenyl)-2,2-dimethyl-4-[4′-(methylsulfinyl)phenyl]-furan-3(2H)-one], the inhibition in vivo at 0.1 µmol/g in data set [1] (setting [4]) was 51%.
Compound `CC1(C)OC(c2cccc(Cl)c2)=C(c2ccc(S(C)(=O)=O)cc2)C1=O` [1o, 5-(3′-Chlorophenyl)-2,2-dimethyl-4-[4′-(methylsulfonyl)phenyl]-furan-3(2H)-one] displayed a melting point of 219 to 221 °C. Further, the IC50 at human recombinant COX-2 was found to be 71 µM. Besides, the IC50 at ovine COX-1 is 22 µM. Moreover, the inhibition in vivo at 0.1 µmol/g in data set [1] (setting [4]) was 50.7%.
Compound `CC1(C)OC(c2ccccc2)=C(c2ccc(S(N)(=O)=O)cc2)C1=O` [1q, 5-(4′-Phenyl)-2,2-dimethyl-4-[4′-(aminosulfonyl)phenyl]-furan-3(2H)-one] returned a melting point of 158 to 160 °C. Further, in data set [1] (setting [4]), the inhibition in vivo at 0.1 µmol/g was determined as 38%.
The compound `CC1(C)OC(c2cccc(Cl)c2)=C(c2ccc(S(N)(=O)=O)cc2)C1=O` [1u, 5-(3′-Chlorophenyl)-2,2-dimethyl-4-[4′-(aminosulfonyl)phenyl]-furan-3(2H)-one] registered a melting point of 198 to 200 °C.
Compound `CC1(C)OC(c2ccc(Cl)cc2)=C(c2ccc(S(N)(=O)=O)cc2)C1=O` [1v, 5-(4′-Chlorophenyl)-2,2-dimethyl-4-[4′-(aminosulfonyl)phenyl]-furan-3(2H)-one] displayed a melting point of 224 to 225 °C. For the same compound, the IC50 at human recombinant COX-2 worked out at 20 µM. Besides, on ovine COX-1, the IC50 was 28 µM. Besides, in data set [1] (setting [4]), the inhibition in vivo at 0.1 µmol/g was found to be 44.3%.
On to `CNS(=O)(=O)c1ccc(C2=C(c3ccc(Cl)cc3)OC(C)(C)C2=O)cc1` [1vMe, 5-(4′-Chlorophenyl)-2,2-dimethyl-4-[4′-(methylaminosulfonyl)phenyl]-furan-3(2H)-one], for which the melting point lay within 204 to 205 °C.
Compound `CC1(C)OC(c2ccc(F)cc2)=C(c2ccc(S(N)(=O)=O)cc2)C1=O` [1w, 5-(4′-Fluorophenyl)-2,2-dimethyl-4-[4′-(aminosulfonyl)phenyl]-furan-3(2H)-one] gave a melting point of 167 to 169 °C. For the same compound, at human recombinant COX-2, the half-maximal inhibitory concentration (IC50) was above 50 µM. Further, the IC50 on ovine COX-1 was 70 µM. In data set [1] (setting [4]), the inhibition in vivo at 0.1 µmol/g worked out at 43.7%.
As to `O=c1[nH]cc(F)c(=O)[nH]1` [5-Fluorouracil, reference compound], in the data set on MCF-7 cells [2], the IC50 was found to be 0.03 µM.
Regarding `Cc1ccc(-c2cc(C(F)(F)F)nn2-c2ccc(S(N)(=O)=O)cc2)cc1` [Celecoxib, reference compound], in the data set on MCF-7 cells [3] (+ 0.3 μM 5-fu), the “Combination Effect with 5-fluorouracil” value is given as “antagonism”. In addition, the “% Cell Growth, combination with 5-fluorouracil” value in the data set on MCF-7 cells [3] (+ 0.3 μM 5-fu (21.3 μM 1h, 2.9 μM 1g, 3.8 μM x-1, 29 μM cel)) came to 49.3%. For the same compound, the “CI, combination with 5-fluorouracil” value with MCF-7 cells [3] (+ 0.3 μM 5-fu) is on record as 1.57; in the data set with MCF-7 cells [3] (+ 0.3 μM 5-fu, listed as cel) it was above 1. Further, the “Combination Effect with gefitinib” value in the data set with MCF-7 cells [3] (+ 70 μM gef) is listed as “antagonism”. In addition, in the data set with MCF-7 cells [3] (+ 70 μM gef (27.5 μM 1h, 10 μM 1g, 10 μM x-1, 29 μM cel)), the “% Cell Growth, combination with gefitinib” value is given as 56.8%. The “CI, combination with gefitinib” value in the data set with MCF-7 cells [3] (+ 70 μM gef) is reported as 9.8; in the data set with MCF-7 cells [3] (+ 70 μM gef, listed as cel), above 1. Besides, the half-maximal inhibitory concentration (IC50) in the data set on MCF-7 cells [2] turned out to be 29.2 µM; in the data set with MCF-7 cells [2] (Homo sapiens, MCF7, 48 h), 29.2 µM. In data set [1], the “anti-inflammatory activity, reference compounds” value worked out at 64.6%.
As to `CC1(C)OC(c2ccc(S(C)(=O)=O)cc2)=C(c2ccccc2)C1=O` [E-1, reference compound], in data set [1] (setting [4]), the inhibition in vivo at 0.1 µmol/g turned out to be 57.7%.
The same measure, in the same setting: then `CC1(C)OC(c2ccc(S(C)(=O)=O)cc2)=C(c2cccc(Cl)c2)C1=O` [E-3, reference compound], with 52.1%.
In the case of `COc1ccc2cc([C@H](C)C(=O)O)ccc2c1` [Naproxen, reference compound], the half-inhibitory concentration (IC50) on human recombinant COX-2 is 50 µM.
Turning to `COc1ccc2c(c1)c(CC(=O)O)c(C)n2C(=O)c1ccc(Cl)cc1` [indomethacin, reference compound], in data set [1], the “anti-inflammatory activity, reference compounds” value is given as 47%.
Compound `CC1(C)Oc2c(c3ccc(S(C)(=O)=O)cc3c3cc(F)ccc23)C1=O` [x-2, 3-Fluoro-2′,2′-dimethyl-6-(methylsulfonyl)-phenanthro[9,10-b]furan-3′(2′H)-one] had a melting point of 242 to 244 °C. Moreover, the inhibition in vivo at 0.1 µmol/g in data set [1] was 40%.
